US20100048396A1, “METHOD, USE AND AGENT FOR PROTECTING A PLANT AGAINST PYTHIUM AND RHIZOCTONIA” (priority 2007, published 2010)

Key:
[1] = test system: Rhizoctonia solani; experiment: Protection of corn against infestation with Rhizoctonia solani (seed treatment, infested small-parcel fields); type: in vivo; details: corn seed treated with triticonazole 5 gai/100 kg alone; seedlings surviving (from 50) after sowing and emergence; untreated control 46
Description: An isolate of Rhizoctonia solani originally isolated from maize was grown on potatoe dextrose agar (PDA) at 20° C. in the dark for 14 days. A vermiculite/maize meal/distilled water mixture (2.7:1:1) was autoclaved at 121° C. for 30 minutes in poly-ethylene “autoclave” bags. Once cool, the mixture was inoculated with 40×5 mm^2 agar disks cut from the Rhizoctonia solani cultures and mixed well. The inoculum bags were sealed and then incubated for 14 days at 22° C. with 16 hours light and 8 hours dark periods. Successful growth was checked by extracting granules of vermiculate and plating on PDA. Infested soil was prepared by mixing peat: sharp washed sand (3:1), removing any large peat clumps, adding maize meal mixture (9:1) and combining the two wells.
(§1) Corn seed was either treated with a slurry comprising triticonazole and/or prochloraz in water so that the amounts indicated below were applied per 100 kg of seed, or left untreated (control). Small-parcel fields (1×2 m) were infested with Rhizoctonia solani as described above. After sowing and emergence the number of seedlings surviving (from 50) was determined.

[2] = test system: Pythium ultimum; experiment: Protection of corn against infestation with Pythium ultimum (seed treatment, infested small-parcel fields); type: in vivo; details: corn seed treated with triticonazole 5 gai/100 kg alone; based on a weighted 0-5 infection scale; untreated control 70
Description: An isolate of Pythium ultimum originally isolated from maize was grown on potatoe dex-trose agar (PDA) at 22° C. in the dark for 14 days. A vermiculate/maize meal/distilled water mixture (2.7:1:1) was autoclaved at 121° C. for 30 minutes in polyethylene “auto-clave” bags. Once cool, the mixture was inoculated with 40×5 mm^2 agar disks cut from the Pyhtium ultimum cultures and mixed well. The inoculum bags were sealed and then incubated for 14 days at 21° C. for 14 days in the dark. Successful growth was checked by extracting granules of vermiculate and plating on PDA. Infested soil was prepared by mixing peat: sharp washed sand (3:1) removing any large peat clumps, adding maize meal mixture (40:60 v/v) and combining the two well.
as §1, with “Pythium ultimum” for “Rhizoctonia solani”, “the” for “the number of”, “the disease index (based on a weighted 0-5 infection scale)” for “surviving (from 50)”

CC1(C)CC/C(=C\c2ccc(Cl)cc2)C1(O)Cn1cncn1 (centres unmarked) [Triticonazole, (E)-5-(4-chlorbenzyliden)-2,2-dimethyl-1-(1H-1,2,4-triazol-1-ylmethyl)cyclopentanol]
Percentage of plants surviving [1]: 36%
Disease index [2]: 71%
